Experiments:
[1] = administration of D-BHB, D-BHV and D-1,3BD in various ratios to human subjects at rest: circulating ketones and ketotic efficiency; format: in vivo; details: for Max change in mMol/L (increase in circulating ketone level): 10 g dose, three human subjects at rest; for 1 hour ketotic efficiency: 1 hour post-administration; for 1 hour ketotic efficiency / 2 hours ketotic efficiency: subject at rest; for 2 hours ketotic efficiency: 2 hours post-administration; for prolonged rise of blood ketone levels / sustained ketonemia: based on measured plasma levels of FIG. 1, subject at rest; for ketotic efficiency, rank in words: both 1 and 2 hours post-administration
Method: The administration of examples presented herein result in an increase in the circulating level of ketones in a human subject at rest that is greater than would result from the administration of (D)-β-hydroxybutyrate or (D)-1,3 butanediol alone over a duration of, for example, 120 minutes. Preferred examples include administration of a combination of D-BHB, D-BHV, and D-1,3BD in a therapeutically effective amount such that the rate change of circulating ketones in the blood of a human subject at rest is faster than the administration of an equivalent amount of either D-BHB or D-1,3BD administered alone. In one example, this includes the administration of a composition including a mixture of 43.2%% D-BHB, 1.8% D-BHV and 55% D-1,3BD. In another example, this includes the administration of a composition including a mixture of 52.8% DBHB, 2.2% D-BHV, and 45% D-1,3BD. In another example, this includes the administration of at composition including a mixture of 62.4% D-BHB, 2.6% D-BHV, and 35% D-1,3BD.
Examples include using a composition including D-BHB, D-BHV, and D-1,3BD in a subject at rest. The ketotic efficiency represents the net elevation of circulating ketones a ketone supplement affects over time in an individual. Ketotic efficiency may be represented as:
[formula] where mMol/L is the concentration of circulating 3-hydroxybutyrate in the blood, g is the total dose of the combined D-BHB, D-BHV, and D-1,3,BD in grams, kg is the mass of the individual in kilograms, and t is an increment of time in minutes.
While this example pertains to a fasted subject at rest, the relative utility of blended vs pure constituents has also been observed in fed and active subjects.
As illustrated by the examples of FIG. 1, these exemplary compositions can advantageously elevate circulating ketones by approximately two times greater than other known compositions. Such a composition can sustain ketonemia for longer than either D-BHB or D-1,3BD can when ingested alone by a subject of a given weight as shown by the 100% line (i.e., contains D-BHB, but not D-1,3BD) and the 0% line (i.e., contains only D-1,3BD, but not D-BHB).
As shown in the following table, the increase in circulating ketone level with a 10 g dose in three human subjects at rest was maximal at between 45-55% D-BHB in the tested compositions. […]

[2] = similar to lemon juice; cited from earlier work

Structure (SMILES) | Max change in mMol/L (increase in circulating ketone level) [1] [mmol/L] | 1 hour ketotic efficiency [1] [kg·mmol·min/g/L] | 2 hours ketotic efficiency [1] [kg·mmol·min/g/L] | prolonged rise of blood ketone levels / sustained ketonemia [1] | ketotic efficiency, rank in words [1] | pH [2]
CC(O)CC(=O)O (stereo not drawn) [100%, (D)-β-hydroxybutyric acid] | 0.9 | 335 | 566 | A similar result | lowest efficiency | 2.5
CC(O)CCO (centres unmarked) [0%, (D)-1,3 butanediol] | 0.8 | 266 | 462 | does not cause a prolonged rise of blood ketone levels | lowest efficiency | 

Source: US11044932B1, “Composition of (D)-beta-hydroxybutyric acid, (D)-beta-hydroxyvaleric acid, and (D)-1,3 butanediol” (priority 2020, dated 2021)
